Measurements from patent US4423053A, “Derivatives of 2-amino-5-(o-sulphamidophenyl)-1,3,4-thiadiazol as antiviral agents and a process for the preparation thereof” (Societa Italo-Britannica L. Manetti-H. Roberts & Co., priority 1981, dated 1983).
Like-named read-outs stand apart in the source and are kept apart here.

Legend:
[1] = system: Polio 1; assay type: cell-based
[2] = system: Adeno 17; assay: Inhibition of virion production, Adeno 17 on HEp-2 cells (Table H); assay type: cell-based
Procedure: (§1) The activity of the compound G-413 was assessed by the test of inhibition of virion production.
(§2) The test was effected with various types of virus, on HEp-2 cells.

[3] = system: Herpes simplex virus type 2; assay: Activity in vitro on HSV2 for different times of administration after infection (Table C); assay type: cell-based
Procedure: (§3) The tests were carried out inoculating virus of various kinds on living cells from different sources, forming the respective culture in tissue culture flasks, according to the method well known to those skilled in the art. The virus forms a plurality growing seats on the bottom of the tissue culture flasks, depending on the virus concentration and the test conditions, said seats being easily identifiable with the naked eye. In such a way it is possible to establish the controls. At the same time in the tissue culture flasks wherein the compound of the invention had been introduced, at various concentrations, an inhibition is observed, as shown by a number of growing seats lower than that of the controls. Said inhibition was calculated in percent as referred in the following tables. In order to ascertain the activity of compound G-413 "in vitro" at a dose of 10 μg on Herpes simplex virus type 2 for different times of administration, a test was effected introducing the compound into the cells after the virus infection.

[4] = system: HSV2; assay: Activity on kidney primary cells of rabbit with respect to HSV2 (Table I)
[5] = system: HSV2; assay: Inhibition of virion production, HSV2 on HEp-2 cells (Table G); assay type: cell-based, Herpes simplex virus type 2
[6] = system: Coxsackie B4; assay: Inhibition of virion production, Coxsackie B4 on HEp-2 cells (Table F); assay type: cell-based
Procedure: as §1, §2

[7] = system: Herpes simplex virus type 2; assay: Antiviral activity in vitro on HSV2 at different doses (Table A); assay type: cell-based
Procedure: as §3, with “Tests have been effected by using virus” for “In order to ascertain the activity of compound G-413 "in vitro" at a dose of 10 μg on”, “simplex,” for “simplex virus”, “(HSV2), and” for “for different times of administration, a test was effected introducing the compound into the cells after the”, “Coxackie B, type 4 (COXB4).” for “infection.”

[8] = system: virus Coxackie B, type 4 (COXB4); assay: Antiviral activity in vitro on Coxackie B type 4 at different doses (Table B); assay type: cell-based
Procedure: as §3, with “Tests have been effected by using virus” for “In order to ascertain the activity of compound G-413 "in vitro" at a dose of 10 μg on”, “simplex,” for “simplex virus”, “(HSV2), and” for “for different times of administration, a test was effected introducing the compound into the cells after the”, “Coxackie B, type 4 (COXB4).” for “infection.”

[9] = system: ECHO 2; assay: Inhibition of virion production, ECHO 2 on HEp-2 cells (Table E); assay type: cell-based; settings: ECHO 2 10^-6; 10^-7; 10^-8, HEp-2
Procedure: as §1, §2

[10] = system: HSV2; assay: Activity on kidney secondary cells of rabbit YRK with respect to HSV2 (Table J)
[11] = Table D, Polio 1 10^-6, HEp-2, 20 μg per "Falcon"
[12] = Table D, Polio 1 10^-7, HEp-2, 20 μg per "Falcon"
[13] = Table D, Polio 1 10^-8, HEp-2, 20 μg per "Falcon"

In the case of Nc1nnc(-c2ccccc2S(N)(=O)=O)s1 [G-413], the “inhibition of virion production” value [1, 11] is reported as 91,9%, the virion production [1, 11] is reported as 29 PFU and the “inhibition of virion production” value [1, 12] is reported as 98,2%. The virion production [1, 12] was 5 PFU, the “inhibition of virion production” value [1, 13] was 97,7% and the virion production [1, 13] was 4 PFU. The “inhibition of virion production” value ([2]; Adeno 17 10^-4, HEp-2) was 65,0%, the virion production ([2]; Adeno 17 10^-4, HEp-2) was 35 PFU and the “inhibition of virion production” value ([2]; Adeno 17 10^-5, HEp-2) was 67,5%. For the same compound, the virion production ([2]; Adeno 17 10^-5, HEp-2) was 27 PFU, the “inhibition of virion production” value ([2]; Adeno 17 10^-6, HEp-2) was 63,4% and the virion production ([2]; Adeno 17 10^-6, HEp-2) was 22 PFU. The inhibition ([3]; HSV2 10^-2 + 10 μg, no delay) was 62,5%, the “virus growth (HSV2 with G-413)” value ([3]; HSV2 10^-2 + 10 μg, no delay) was 7,5 PFU/ml and the inhibition ([3]; HSV2 10^-2, 1 h later + 10 μg) was 45,0%. The “virus growth (HSV2 with G-413)” value ([3]; HSV2 10^-2, 1 h later + 10 μg) was 11,0 PFU/ml, the inhibition ([3]; HSV2 10^-2, 2 h later + 10 μg) was 60,0% and the “virus growth (HSV2 with G-413)” value ([3]; HSV2 10^-2, 2 h later + 10 μg) was 8,0 PFU/ml. For the same compound, the inhibition ([3]; HSV2 10^-2, 4 h later + 10 μg) was 77,0%, the “virus growth (HSV2 with G-413)” value ([3]; HSV2 10^-2, 4 h later + 10 μg) was 4,5 PFU/ml and the inhibition ([3]; HSV2 10^-2, 8 h later + 10 μg) was 85,0%. The “virus growth (HSV2 with G-413)” value ([3]; HSV2 10^-2, 8 h later + 10 μg) was 3,0 PFU/ml, the inhibition ([3]; HSV2 10^-2, 20 h later + 10 μg) was 42,5% and the “virus growth (HSV2 with G-413)” value ([3]; HSV2 10^-2, 20 h later + 10 μg) was 11,5 PFU/ml. The inhibition ([4]; HSV2 10^-1, 10 μg) was 38,1%, the virion production ([4]; HSV2 10^-1, 10 μg) was 13 PFU and the inhibition ([4]; HSV2 10^-1, 50 μg) was 71,5%. The virion production ([4]; HSV2 10^-1, 50 μg) was 6 PFU, the inhibition ([4]; HSV2 10^-2, 10 μg) was 23,0% and the virion production ([4]; HSV2 10^-2, 10 μg) was 7 PFU. The inhibition ([4]; HSV2 10^-2, 50 μg) was 77,0%, the virion production ([4]; HSV2 10^-2, 50 μg) was 3 PFU and the inhibition ([4]; HSV2 10^-3, 10 μg) was 50,0%. The virion production ([4]; HSV2 10^-3, 10 μg) was 2 PFU, the inhibition ([4]; HSV2 10^-3, 50 μg) was 75,0% and the virion production ([4]; HSV2 10^-3, 50 μg) was 1 PFU. The “inhibition of virion production” value ([5]; HSV2 10^-1, HEp-2) was 75,2%, the virion production ([5]; HSV2 10^-1, HEp-2) was 8 PFU and the “inhibition of virion production” value ([5]; HSV2 10^-2, HEp-2) was 75,0%. For the same compound, the virion production ([5]; HSV2 10^-2, HEp-2) was 5 PFU, the “inhibition of virion production” value ([5]; HSV2 10^-3, HEp-2) was 62,5% and the virion production ([5]; HSV2 10^-3, HEp-2) was 3 PFU. The “inhibition of virion production” value ([6]; COX B4 10^-4, HEp-2) was 72,0%, the virion production ([6]; COX B4 10^-4, HEp-2) was 14 PFU and the “inhibition of virion production” value ([6]; COX B4 10^-5, HEp-2) was 83,7%. For the same compound, the virion production ([6]; COX B4 10^-5, HEp-2) was 7 PFU, the “inhibition of virion production” value ([6]; COX B4 10^-6, HEp-2) was 85,0% and the virion production ([6]; COX B4 10^-6, HEp-2) was 6 PFU. The inhibition ([7]; HSV2 10^-3, 2,5 μg) was 66,7%, the “virus growth (HSV2 with G-413)” value ([7]; HSV2 10^-3, 2,5 μg) was 3,5 PFU/ml and the inhibition ([7]; HSV2 10^-3, 5,0 μg) was 66,7%. For the same compound, the “virus growth (HSV2 with G-413)” value ([7]; HSV2 10^-3, 5,0 μg) was 3,5 PFU/ml, the inhibition ([7]; HSV2 10^-3, 10,0 μg) was 81,0% and the “virus growth (HSV2 with G-413)” value ([7]; HSV2 10^-3, 10,0 μg) was 2,0 PFU/ml. For the same compound, the inhibition ([7]; HSV2 10^-3, 20,0 μg) was 71,5%, the “virus growth (HSV2 with G-413)” value ([7]; HSV2 10^-3, 20,0 μg) was 3,0 PFU/ml and the inhibition ([7]; HSV2 10^-3, 30,0 μg) was 52,4%. For the same compound, the “virus growth (HSV2 with G-413)” value ([7]; HSV2 10^-3, 30,0 μg) was 5,0 PFU/ml, the inhibition ([7]; HSV2 10^-3, 40,0 μg) was 52,4% and the “virus growth (HSV2 with G-413)” value ([7]; HSV2 10^-3, 40,0 μg) was 5,0 PFU/ml. The “percent inhibition (in words)” value ([7]; HSV2, dose of 10 μg) was “very high percent inhibition”, the inhibition ([8]; COXB4 10^-6, 2,5 μg) was 28,8% and the “virus growth (COXB4 with G-413)” value ([8]; COXB4 10^-6, 2,5 μg) was 23,5 PFU/ml. For the same compound, the inhibition ([8]; COXB4 10^-6, 5,0 μg) was 89,9%, the “virus growth (COXB4 with G-413)” value ([8]; COXB4 10^-6, 5,0 μg) was 3,0 PFU/ml and the inhibition ([8]; COXB4 10^-6, 10,0 μg) was 81,9%. The “virus growth (COXB4 with G-413)” value ([8]; COXB4 10^-6, 10,0 μg) was 6,5 PFU/ml, the inhibition ([8]; COXB4 10^-6, 20,0 μg) was 80,4% and the “virus growth (COXB4 with G-413)” value ([8]; COXB4 10^-6, 20,0 μg) was 6,5 PFU/ml. The “percent inhibition (in words)” value ([8]; COXB4, dose of 5 μg) was “very high percent inhibition”, the “inhibition of virion production” value [9] was 100% and the inhibition ([10]; HSV2 10^-2, 5 μg) was 10%. The virion production ([10]; HSV2 10^-2, 5 μg) was 9 PFU, the inhibition ([10]; HSV2 10^-2, 10 μg) was 30% and the virion production ([10]; HSV2 10^-2, 10 μg) was 7 PFU. For the same compound, the inhibition ([10]; HSV2 10^-2, 25 μg) was 40%, the virion production ([10]; HSV2 10^-2, 25 μg) was 6 PFU and the inhibition ([10]; HSV2 10^-2, 50 μg) was 70%. It also gave a virion production ([10]; HSV2 10^-2, 50 μg) of 3 PFU, an inhibition ([10]; HSV2 10^-2, 100 μg) of 70% and a virion production ([10]; HSV2 10^-2, 100 μg) of 3 PFU.
For CNc1nnc(-c2ccccc2S(N)(=O)=O)s1 [G-444], the “inhibition of virion production” value ([1]; Table K, Polio 1 10^-6, HEp-2) was 64,8%, the virion production ([1]; Table K, Polio 1 10^-6, HEp-2) was 113 PFU and the “inhibition of virion production” value ([1]; Table K, Polio 1 10^-7, HEp-2) was 65,7%. For the same compound, the virion production ([1]; Table K, Polio 1 10^-7, HEp-2) was 87 PFU, the “inhibition of virion production” value ([1]; Table K, Polio 1 10^-8, HEp-2) was 26,6% and the virion production ([1]; Table K, Polio 1 10^-8, HEp-2) was 83 PFU.
For C=CCNc1nnc(-c2ccccc2S(N)(=O)=O)s1 [G-445], the “inhibition of virion production” value ([1]; Table K, Polio 1 10^-6, HEp-2) was 73,6%, the virion production ([1]; Table K, Polio 1 10^-6, HEp-2) was 85 PFU and the “inhibition of virion production” value ([1]; Table K, Polio 1 10^-7, HEp-2) was 73,2%. The virion production ([1]; Table K, Polio 1 10^-7, HEp-2) was 68 PFU, the “inhibition of virion production” value ([1]; Table K, Polio 1 10^-8, HEp-2) was 44,3% and the virion production ([1]; Table K, Polio 1 10^-8, HEp-2) was 63 PFU.
